In ChEMBL document CHEMBL4476875 (2018):

Tests used:
[1] = target: Histone-lysine N-methyltransferase SUV39H2 (Homo sapiens, UniProt Q9H5I1); assay: Inhibition of SUV39H2 (unknown origin) using H3 histone peptide substrate and [3H]-SAM incubated for 3 hrs by microbeta counting based assay
[2] = test system: A549; assay: Cytotoxicity against human A549 cells assessed as reduction in cell viability incubated for 72 hrs by CCK8 assay; type: functional, cell-based; conditions: A549, 72 h
[3] = test system: HCT-116; assay: Cytotoxicity against human HCT116 cells assessed as reduction in cell viability incubated for 72 hrs by CCK8 assay; type: functional, cell-based; conditions: HCT-116, 72 h
[4] = test system: CCD-18Co; assay: Cytotoxicity against human CCD-18Co cells assessed as reduction in cell viability incubated for 72 hrs by CCK8 assay; type: functional, cell-based
[5] = test system: PC-14; assay: Cytotoxicity against human PC14 cells assessed as reduction in cell viability incubated for 72 hrs by CCK8 assay; type: functional, cell-based; conditions: PC-14, 72 h
[6] = test system: HFL1; assay: Cytotoxicity against human HFL1 cells assessed as reduction in cell viability incubated for 72 hrs by CCK8 assay; type: functional, cell-based; conditions: HFL1, 72 h

Chain of Histone-lysine N-methyltransferase SUV39H2 (Q9H5I1 whole entry): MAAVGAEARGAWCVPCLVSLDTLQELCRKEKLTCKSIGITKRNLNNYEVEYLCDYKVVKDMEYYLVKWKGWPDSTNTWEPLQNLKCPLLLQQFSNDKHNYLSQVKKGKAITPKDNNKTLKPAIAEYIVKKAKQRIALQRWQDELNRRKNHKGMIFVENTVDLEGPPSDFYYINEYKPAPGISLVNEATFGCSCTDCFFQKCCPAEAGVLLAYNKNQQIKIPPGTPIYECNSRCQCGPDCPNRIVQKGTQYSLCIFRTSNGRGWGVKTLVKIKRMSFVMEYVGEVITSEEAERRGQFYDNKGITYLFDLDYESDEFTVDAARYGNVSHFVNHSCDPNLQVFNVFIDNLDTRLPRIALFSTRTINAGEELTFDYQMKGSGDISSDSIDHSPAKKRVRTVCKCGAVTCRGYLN

Structure (SMILES) | IC50 [1] [µM] | IC50 [2] [µM] | further results
COc1cc(OC)c(-c2cn3ccc(-c4ccc(C(=O)[C@H](C)N)cc4)cc3n2)cc1Cl | 0.0995 | – | –
COc1cc(OC)c(-c2cn3ccc(N4CCN(c5cnc(N6CCC(NS(=O)(=O)C7CC7)CC6)nc5)CC4)cc3n2)cc1Cl | – | 0.67 | –
COC(=O)c1ccc(CN[C@H]2CC[C@@H](Nc3ccn4cc(-c5cc(Cl)c(OC)cc5OC)nc4c3)CC2)cc1 | 0.0241 | – | –
COc1cc(OC)c(-c2cn3ccc(N[C@H]4C[C@H]5CC[C@@H](C4)N5CC4CCCCC4)cc3n2)cc1Cl | – | 0.55 | –
COc1cc(OC)c(-c2cn3ccc(N4CCN(c5cnc(N6CCNCC6)nc5)CC4)cc3n2)cc1Cl | 0.0148 | – | –
COCC(=O)N1CCN(c2ccn3cc(-c4cc(Cl)c(OC)cc4OC)nc3c2)C(C)C1 (centres undefined) | 0.00188 | – | –
CNCC(=O)Nc1ccc(-c2ccn3cc(-c4cc(Cl)c(OC)cc4OC)nc3c2)cc1 | 0.0801 | – | –
COc1cc(OC)c(-c2cn3ccc(-c4ccc(C(=O)NC5CCNC5)cc4)cc3n2)cc1Cl (centres undefined) | – | 5.4 | IC50 [3]: 3.7 µM; IC50 [4]: 5.2 µM; IC50 [5]: 4.8 µM; IC50 [6]: 5.4 µM
COc1cc(OCCCN(C)C)c(-c2cn3ccc(N4CCN(C(C)=O)CC4)cc3n2)cc1Cl | – | 6.9 | IC50 [3]: 7.9 µM; IC50 [4]: 8.7 µM; IC50 [5]: 8 µM; IC50 [6]: 4.3 µM
COc1cc(OC)c(-c2cn3ccc(N4CCN(Cc5ccc(C#N)nc5)CC4)cc3n2)cc1Cl | – | 0.96 | –
COc1cc(OC)c(-c2cn3ccc(N[C@H]4CC[C@@H](N(C)Cc5ccc(F)cc5)CC4)cc3n2)cc1Cl | – | 1.3 | –
COc1cc(OC)c(-c2cn3ccc(N[C@H]4CC[C@@H](N(C)Cc5ccccc5F)CC4)cc3n2)cc1Cl | – | 0.74 | –
COc1cc(OC)c(-c2cn3ccc(NC(=O)[C@@H](N)CCCCN)cc3n2)cc1Cl | – | 10 | IC50 [3]: 10 µM; IC50 [4]: 10 µM; IC50 [6]: 10 µM
